ChEMBL document CHEMBL1201862, “PubChem BioAssay data set” (2004)
Active and inactive are the calls of the source.

Legend:
[1] = biological target: Calcium/calmodulin-dependent protein kinase type II subunit beta (Homo sapiens, UniProt Q13554); format: functional
[2] = biological target: Macrophage colony-stimulating factor 1 receptor (Homo sapiens, UniProt P07333); format: functional;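 note: value comes from the Navigating the Kinome screening panel, CSF1R member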
[3] = biological target: Activin receptor type-1 (Homo sapiens, UniProt Q04771); assay: Navigating the Kinome. Panel member name: ACVR1; format: functional
[4] = biological target: Protein kinase C delta type (Homo sapiens, UniProt Q05655); format: functional
[5] = biological target: Interleukin-1 receptor-associated kinase 4 (Homo sapiens, UniProt Q9NWZ3); format: functional
[6] = biological target: Mitogen-activated protein kinase kinase kinase kinase 2 (Homo sapiens, UniProt Q12851); format: functional;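 note: measured as one member of a kinome-wide kinase panel, with MAP4K2 as the panel entry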
[7] = biological target: Tyrosine-protein kinase BTK (Homo sapiens, UniProt Q06187); format: functional
[8] = biological target: Macrophage-stimulating protein receptor (Homo sapiens, UniProt Q04912); assay: Navigating the Kinome. Panel member name: MST1R; format: functional
[9] = biological target: Mitogen-activated protein kinase 9 (Homo sapiens, UniProt P45984); format: functional;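 note: value from a kinome panel profiling assay, MAPK9 panel entry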
[10] = biological target: Tyrosine-protein kinase FRK (Homo sapiens, UniProt P42685); format: functional;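 note: FRK tested as one member of a kinome panel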
[11] = biological target: 3-phosphoinositide-dependent protein kinase 1 (Homo sapiens, UniProt O15530); format: functional;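 note: value comes from the Navigating the Kinome panel, PDPK1 member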
[12] = biological target: Serine/threonine-protein kinase TBK1 (Homo sapiens, UniProt Q9UHD2); assay: Navigating the Kinome. Panel member name: TBK1; format: functional
[13] = biological target: cAMP-dependent protein kinase catalytic subunit alpha (Homo sapiens, UniProt P17612); format: functional
[14] = biological target: Serine/threonine-protein kinase PAK 4 (Homo sapiens, UniProt O96013); format: functional;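 note: value obtained within a kinome profiling panel in which PAK4 was one of the panel members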
[15] = biological target: cGMP-dependent protein kinase 1 (Homo sapiens, UniProt Q13976); format: functional;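 note: value from a kinome panel screen with PRKG1 as the panel member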
[16] = biological target: Homeodomain-interacting protein kinase 2 (Homo sapiens, UniProt Q9H2X6); format: functional;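 note: measured within a kinome-wide kinase profiling panel, HIPK2 being one panel member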
[17] = biological target: Tyrosine-protein kinase receptor TYRO3 (Homo sapiens, UniProt Q06418); format: functional;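 note: TYRO3 value obtained as one member of a kinome-wide profiling panel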
[18] = biological target: Glycogen synthase kinase-3 alpha (Homo sapiens, UniProt P49840); format: functional;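 note: GSK3A result taken from a broad kinome-wide kinase panel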
[19] = biological target: Mitogen-activated protein kinase kinase kinase kinase 4 (Homo sapiens, UniProt O95819); format: functional
[20] = biological target: Calcium/calmodulin-dependent protein kinase type II subunit delta (Homo sapiens, UniProt Q13557); format: functional
[21] = biological target: Casein kinase I isoform gamma-1 (Homo sapiens, UniProt Q9HCP0); format: functional;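 note: measured as the CSNK1G1 member of a kinome profiling panel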
[22] = biological target: Leucine-rich repeat serine/threonine-protein kinase 2 (Homo sapiens, UniProt Q5S007); format: functional;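 note: value from a broad kinome-wide panel profiling study in which LRRK2 was one of the kinases tested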
[23] = biological target: Casein kinase I isoform delta (Homo sapiens, UniProt P48730); format: functional;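 note: measured as one member (CSNK1D) of a kinome panel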
[24] = biological target: Leukocyte tyrosine kinase receptor (Homo sapiens, UniProt P29376); assay: Navigating the Kinome. Panel member name: LTK; format: functional
[25] = biological target: Serine/threonine-protein kinase D2 (Homo sapiens, UniProt Q9BZL6); format: functional;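 note: measured against PRKD2 as one member of a kinome-wide kinase profiling panel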
[26] = biological target: Mitogen-activated protein kinase 12 (Homo sapiens, UniProt P53778); format: functional;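 note: measured as one member of a kinome-wide kinase profiling panel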
[27] = biological target: Serine/threonine-protein kinase PAK 1 (Homo sapiens, UniProt Q13153); format: functional
[28] = biological target: Non-receptor tyrosine-protein kinase TYK2 (Homo sapiens, UniProt P29597); format: functional
[29] = biological target: Vascular endothelial growth factor receptor 3 (Homo sapiens, UniProt P35916); format: functional;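 note: value from a kinome-wide profiling panel, with FLT4 as the panel member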
[30] = biological target: Cyclin-dependent kinase 8 (Homo sapiens, UniProt P49336); assay: Navigating the Kinome. Panel member name: CDK8; format: functional
[31] = biological target: Serine/threonine-protein kinase pim-1 (Homo sapiens, UniProt P11309); format: functional
[32] = fluconazole-exposed Candida albicans growth modulators – fluorescence, retest, confirmation (AID 2467); format: functional, cell-based
[33] = biological target: ATP-dependent molecular chaperone HSP82 (Candida albicans (strain WO-1) (Yeast), UniProt C4YTQ8); assay: steroid-induced GRE reporter decrease in yeast – S. cerevisiae, luminescence, Hsp90 inhibitor project, dose response (AID 2400); format: functional, cell-based;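 note: beta-galactosidase luminescence from glucocorticoid response element reporter as proxy for Hsp90 function; inhibitor potency where signal loss means Hsp90 inhibition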
[34] = biological target: T1, Replicative DNA helicase DnaB (Mycobacterium tuberculosis, UniProt P9WMR3); assay: DnaB intein splicing inhibitors, dose response, biochemical, cell-free fluorescence (AID 449749); format: functional
T1 sequence (P9WMR3 whole entry): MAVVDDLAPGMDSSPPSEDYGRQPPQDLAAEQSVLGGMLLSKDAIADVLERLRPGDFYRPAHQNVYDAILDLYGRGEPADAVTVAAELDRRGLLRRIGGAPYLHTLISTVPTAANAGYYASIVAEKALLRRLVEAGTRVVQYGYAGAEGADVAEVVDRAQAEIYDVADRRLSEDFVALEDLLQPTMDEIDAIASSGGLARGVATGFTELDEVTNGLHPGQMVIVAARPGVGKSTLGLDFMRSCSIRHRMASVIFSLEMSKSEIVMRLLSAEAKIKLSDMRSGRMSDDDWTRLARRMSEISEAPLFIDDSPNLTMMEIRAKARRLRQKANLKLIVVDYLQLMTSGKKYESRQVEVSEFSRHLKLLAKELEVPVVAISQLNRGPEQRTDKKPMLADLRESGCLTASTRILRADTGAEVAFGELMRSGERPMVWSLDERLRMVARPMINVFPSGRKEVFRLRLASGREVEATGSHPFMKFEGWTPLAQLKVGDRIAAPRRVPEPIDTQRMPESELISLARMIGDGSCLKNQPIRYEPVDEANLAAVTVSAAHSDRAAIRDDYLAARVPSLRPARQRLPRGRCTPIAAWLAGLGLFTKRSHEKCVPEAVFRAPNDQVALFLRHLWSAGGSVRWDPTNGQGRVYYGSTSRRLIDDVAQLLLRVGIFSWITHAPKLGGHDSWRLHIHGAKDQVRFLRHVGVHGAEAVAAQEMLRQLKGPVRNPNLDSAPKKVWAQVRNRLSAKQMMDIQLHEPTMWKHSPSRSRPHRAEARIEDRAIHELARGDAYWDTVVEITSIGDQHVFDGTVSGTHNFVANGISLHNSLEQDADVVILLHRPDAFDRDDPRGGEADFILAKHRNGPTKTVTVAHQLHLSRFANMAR

Sequence of Interleukin-1 receptor-associated kinase 4 (Q9NWZ3 whole entry): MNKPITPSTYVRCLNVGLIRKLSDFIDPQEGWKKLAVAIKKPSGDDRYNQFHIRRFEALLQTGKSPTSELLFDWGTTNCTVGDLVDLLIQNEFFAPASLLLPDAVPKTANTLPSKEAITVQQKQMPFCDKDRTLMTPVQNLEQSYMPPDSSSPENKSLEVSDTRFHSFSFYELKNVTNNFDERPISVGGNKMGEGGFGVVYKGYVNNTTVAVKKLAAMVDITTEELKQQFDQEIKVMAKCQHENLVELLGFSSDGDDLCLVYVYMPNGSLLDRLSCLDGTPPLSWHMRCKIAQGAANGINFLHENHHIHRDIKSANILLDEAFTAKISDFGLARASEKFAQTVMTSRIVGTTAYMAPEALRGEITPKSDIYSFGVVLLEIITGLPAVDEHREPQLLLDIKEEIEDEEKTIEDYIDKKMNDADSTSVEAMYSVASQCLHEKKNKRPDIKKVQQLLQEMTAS
Sequence of Vascular endothelial growth factor receptor 3 (P35916 whole entry): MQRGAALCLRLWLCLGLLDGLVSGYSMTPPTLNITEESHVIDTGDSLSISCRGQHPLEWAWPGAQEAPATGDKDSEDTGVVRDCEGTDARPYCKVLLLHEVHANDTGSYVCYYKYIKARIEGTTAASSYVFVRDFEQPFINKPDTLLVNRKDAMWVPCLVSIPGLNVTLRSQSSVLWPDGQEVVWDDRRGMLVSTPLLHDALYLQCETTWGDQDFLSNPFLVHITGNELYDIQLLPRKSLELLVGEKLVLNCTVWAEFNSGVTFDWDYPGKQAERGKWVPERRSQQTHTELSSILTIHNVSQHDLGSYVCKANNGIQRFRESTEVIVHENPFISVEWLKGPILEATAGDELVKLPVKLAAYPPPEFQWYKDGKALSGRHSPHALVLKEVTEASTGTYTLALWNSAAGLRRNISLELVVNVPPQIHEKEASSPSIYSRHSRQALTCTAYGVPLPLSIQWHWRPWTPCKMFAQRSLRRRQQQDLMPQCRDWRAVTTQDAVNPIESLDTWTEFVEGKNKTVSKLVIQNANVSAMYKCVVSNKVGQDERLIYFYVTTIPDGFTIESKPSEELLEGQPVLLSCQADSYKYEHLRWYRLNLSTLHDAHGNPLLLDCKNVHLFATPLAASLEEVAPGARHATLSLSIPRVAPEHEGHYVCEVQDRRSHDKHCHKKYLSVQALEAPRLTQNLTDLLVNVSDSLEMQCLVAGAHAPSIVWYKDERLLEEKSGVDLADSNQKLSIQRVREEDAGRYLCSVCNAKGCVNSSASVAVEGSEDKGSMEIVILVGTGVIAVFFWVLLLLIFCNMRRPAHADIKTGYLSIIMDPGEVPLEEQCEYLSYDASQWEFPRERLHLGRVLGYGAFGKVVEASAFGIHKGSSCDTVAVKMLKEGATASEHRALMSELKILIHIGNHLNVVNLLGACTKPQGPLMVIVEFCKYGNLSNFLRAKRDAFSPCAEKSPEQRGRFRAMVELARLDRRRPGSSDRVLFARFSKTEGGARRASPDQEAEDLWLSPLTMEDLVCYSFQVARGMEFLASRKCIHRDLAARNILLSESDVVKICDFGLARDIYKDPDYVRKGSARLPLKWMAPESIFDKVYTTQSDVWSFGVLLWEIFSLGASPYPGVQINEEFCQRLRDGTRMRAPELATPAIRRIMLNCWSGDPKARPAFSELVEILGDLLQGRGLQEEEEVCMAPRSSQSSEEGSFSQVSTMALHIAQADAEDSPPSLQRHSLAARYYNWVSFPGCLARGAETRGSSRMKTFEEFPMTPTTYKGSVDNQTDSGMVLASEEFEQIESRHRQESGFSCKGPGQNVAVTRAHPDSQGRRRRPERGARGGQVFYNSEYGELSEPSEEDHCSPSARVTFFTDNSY
Sequence of Activin receptor type-1 (Q04771 whole entry): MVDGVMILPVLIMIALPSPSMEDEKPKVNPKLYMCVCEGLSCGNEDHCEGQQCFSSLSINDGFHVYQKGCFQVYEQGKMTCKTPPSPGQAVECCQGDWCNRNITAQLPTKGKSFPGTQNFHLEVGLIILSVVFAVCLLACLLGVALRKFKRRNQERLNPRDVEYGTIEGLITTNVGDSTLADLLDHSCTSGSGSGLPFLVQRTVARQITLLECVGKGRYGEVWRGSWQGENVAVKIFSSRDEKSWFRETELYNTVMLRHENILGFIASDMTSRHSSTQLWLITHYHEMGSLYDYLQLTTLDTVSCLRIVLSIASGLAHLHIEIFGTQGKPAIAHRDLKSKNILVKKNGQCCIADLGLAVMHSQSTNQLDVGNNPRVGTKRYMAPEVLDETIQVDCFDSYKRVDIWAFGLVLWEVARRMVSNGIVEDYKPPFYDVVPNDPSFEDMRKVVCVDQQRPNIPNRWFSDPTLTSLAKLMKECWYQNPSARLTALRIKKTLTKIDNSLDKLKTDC
Sequence of Non-receptor tyrosine-protein kinase TYK2 (P29597 whole entry): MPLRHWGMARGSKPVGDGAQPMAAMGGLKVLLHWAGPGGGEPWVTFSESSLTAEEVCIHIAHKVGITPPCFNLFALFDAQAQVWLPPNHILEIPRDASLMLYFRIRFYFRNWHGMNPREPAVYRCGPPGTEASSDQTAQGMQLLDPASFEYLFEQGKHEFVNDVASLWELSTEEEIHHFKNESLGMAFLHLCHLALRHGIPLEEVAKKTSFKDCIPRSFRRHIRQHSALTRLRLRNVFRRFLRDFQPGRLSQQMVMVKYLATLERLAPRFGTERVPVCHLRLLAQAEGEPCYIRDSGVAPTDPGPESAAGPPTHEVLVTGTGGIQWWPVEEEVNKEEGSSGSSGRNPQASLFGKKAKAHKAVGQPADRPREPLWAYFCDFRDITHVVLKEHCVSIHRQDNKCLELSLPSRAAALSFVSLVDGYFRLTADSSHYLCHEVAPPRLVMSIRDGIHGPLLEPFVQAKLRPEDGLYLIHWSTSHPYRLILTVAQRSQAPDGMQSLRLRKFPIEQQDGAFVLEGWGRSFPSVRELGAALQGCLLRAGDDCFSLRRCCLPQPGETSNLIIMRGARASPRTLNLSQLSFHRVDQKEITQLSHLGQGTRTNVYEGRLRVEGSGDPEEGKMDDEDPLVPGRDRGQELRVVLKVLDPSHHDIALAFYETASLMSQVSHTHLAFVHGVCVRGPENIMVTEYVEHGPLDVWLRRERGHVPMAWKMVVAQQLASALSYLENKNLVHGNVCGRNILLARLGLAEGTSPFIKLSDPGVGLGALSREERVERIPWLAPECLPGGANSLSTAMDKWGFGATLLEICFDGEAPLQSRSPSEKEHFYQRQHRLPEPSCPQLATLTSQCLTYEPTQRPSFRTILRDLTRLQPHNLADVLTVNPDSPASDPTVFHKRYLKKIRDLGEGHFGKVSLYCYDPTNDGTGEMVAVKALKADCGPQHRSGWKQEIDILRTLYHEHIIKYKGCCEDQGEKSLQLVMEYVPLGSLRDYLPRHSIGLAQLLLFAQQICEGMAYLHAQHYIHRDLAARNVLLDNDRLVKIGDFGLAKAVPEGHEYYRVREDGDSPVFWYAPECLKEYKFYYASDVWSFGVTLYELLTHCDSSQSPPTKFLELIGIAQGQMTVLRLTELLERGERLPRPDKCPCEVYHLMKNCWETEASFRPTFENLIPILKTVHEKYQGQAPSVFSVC
Sequence of Mitogen-activated protein kinase kinase kinase kinase 2 (Q12851 whole entry): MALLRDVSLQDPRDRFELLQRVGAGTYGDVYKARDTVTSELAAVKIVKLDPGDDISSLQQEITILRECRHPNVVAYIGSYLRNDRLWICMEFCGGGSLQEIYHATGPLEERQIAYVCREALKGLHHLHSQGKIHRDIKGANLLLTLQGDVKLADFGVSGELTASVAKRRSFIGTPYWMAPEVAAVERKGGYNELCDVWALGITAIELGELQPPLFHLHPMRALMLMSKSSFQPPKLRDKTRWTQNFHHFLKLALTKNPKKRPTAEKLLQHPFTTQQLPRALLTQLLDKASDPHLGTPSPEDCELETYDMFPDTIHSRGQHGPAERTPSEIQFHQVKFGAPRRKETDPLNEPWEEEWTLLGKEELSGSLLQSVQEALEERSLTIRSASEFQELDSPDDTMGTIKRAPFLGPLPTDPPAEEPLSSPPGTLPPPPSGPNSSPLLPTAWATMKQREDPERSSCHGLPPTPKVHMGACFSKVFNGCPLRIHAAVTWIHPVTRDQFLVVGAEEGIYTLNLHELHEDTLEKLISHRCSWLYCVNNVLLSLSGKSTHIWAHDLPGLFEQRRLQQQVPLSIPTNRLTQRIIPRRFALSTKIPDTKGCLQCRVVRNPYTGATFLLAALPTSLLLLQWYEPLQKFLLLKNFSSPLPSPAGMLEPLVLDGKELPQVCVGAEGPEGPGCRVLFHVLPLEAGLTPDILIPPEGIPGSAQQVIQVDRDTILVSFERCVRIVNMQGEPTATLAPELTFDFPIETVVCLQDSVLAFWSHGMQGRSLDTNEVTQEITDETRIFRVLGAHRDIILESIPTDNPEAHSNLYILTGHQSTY
Sequence of Tyrosine-protein kinase BTK (Q06187 whole entry): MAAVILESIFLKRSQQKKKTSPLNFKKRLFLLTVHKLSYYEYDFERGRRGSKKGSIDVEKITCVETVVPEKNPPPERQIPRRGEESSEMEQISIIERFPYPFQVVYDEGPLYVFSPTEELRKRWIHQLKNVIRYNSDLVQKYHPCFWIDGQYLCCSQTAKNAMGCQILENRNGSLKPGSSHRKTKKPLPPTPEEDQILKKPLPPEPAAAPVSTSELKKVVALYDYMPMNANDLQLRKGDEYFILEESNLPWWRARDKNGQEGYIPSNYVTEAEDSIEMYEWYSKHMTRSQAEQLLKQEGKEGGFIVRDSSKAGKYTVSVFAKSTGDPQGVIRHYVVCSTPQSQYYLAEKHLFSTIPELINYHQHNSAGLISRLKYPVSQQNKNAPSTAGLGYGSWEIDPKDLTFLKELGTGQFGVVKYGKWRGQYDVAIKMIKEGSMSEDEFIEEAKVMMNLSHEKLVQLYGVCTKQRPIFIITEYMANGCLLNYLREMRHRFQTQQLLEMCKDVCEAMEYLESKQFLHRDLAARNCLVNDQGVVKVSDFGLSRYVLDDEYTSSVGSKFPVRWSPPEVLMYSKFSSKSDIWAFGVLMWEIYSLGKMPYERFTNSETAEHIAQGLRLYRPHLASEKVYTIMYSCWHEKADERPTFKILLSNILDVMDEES

NCCCn1cc(-c2cc(-c3cc4ccccc4s3)c3[nH]ncc3c2)c2nc(N)ncc21
inactive: Ki [2] > 2510 nM | Ki [3] > 3160 nM | Ki [6] > 1580 nM | Ki [7] > 3980 nM | Ki [8] > 3980 nM | Ki [9] > 2000 nM | Ki [10] > 2510 nM | Ki [12] > 1580 nM | Ki [17] > 2510 nM | Ki [19] > 3160 nM | Ki [24] > 2510 nM | Ki [28] > 2000 nM | Ki [30] > 3980 nM | Ki [31] > 3160 nM
active: Ki [1] 3160 nM | Ki [4] 316 nM | Ki [5] 7940 nM | Ki [11] 1.58 nM | Ki [13] 39.8 nM | Ki [14] 2510 nM | Ki [15] 6.31 nM | Ki [16] 631 nM | Ki [18] 126 nM | Ki [20] 158 nM | Ki [21] 2510 nM | Ki [22] 251 nM | Ki [23] 126 nM | Ki [25] 50.1 nM | Ki [26] 1260 nM | Ki [27] 63.1 nM | Ki [29] 1000 nM

CCCn1nc([N+](=O)[O-])c(C(C#N)c2nc3ccccc3s2)c(Cl)c1=O (centres undefined)
active: EC50 [32] 661 nM | EC50 [33] 10700 nM | AC50 [34] 4720 nM
